Several values for one entry are separate records, joined by “and”; a condition that tells them apart may be missing. Equal entries are not always repeated. Where two headings read alike, the source gives them in different places.
Tests used:
[1] = test system: MCF-10A normal epithelial breast cells; assay: MTT cell viability assay, normal breast cells; assay type: cell-based, human; conditions: 72 h
Description: The quinoline compounds were evaluated for antiproliferative effect using the MTT viability assay of four cancer cell lines (MCF-7, HCT-116, HL-60 and HeLa) and normal breast cells MCF-10A to calculate the relative IC50 values for each compound. Cells were seeded in triplicate in 96-well plates at a density of 10×10^3 cells/ml in a total volume of 200 μl per well. 0.1% of DMSO was used as a vehicle control. After this time, they were treated with 2 μl test compound which had been pre-prepared as stock solutions in ethanol to furnish the concentration range of study, 1 nM to 50 μM, and re-incubated for a further 72 h. The culture medium was then removed, and the cells washed with 100 μL phosphate buffered saline (PBS) and 50 μL MTT added, to reach a final concentration of 1 mg/mL MTT added. Cells were incubated for 2 h in darkness at 37° C. At this point solubilisation was begun through the addition of […] DMSO and the cells maintained at room temperature in darkness for 20 min to ensure thorough colour diffusion before reading the absorbance. Plates were incubated for 72 hours at 37° C.+5% CO2, The MTT (5 mg/mL in PBS) was added and incubated for another 4 h, the optical density was detected with a microplate reader at 570 nm. Results were expressed as percentage viability relative to vehicle control (100%). […]

bovine brain tubulin = assay: Tubulin polymerization assay; assay type: biochemical; conditions: inhibition of tubulin polymerization; tubulin at 10 μM; read-out: Tubulin assembly IC50 ± SD
Description: The assembly of purified bovine tubulin was monitored using a kit, BK006, purchased from Cytoskeleton Inc., (Denver, Colo., USA). The assay was carried out in accordance with the manufacturer's instructions using the standard assay conditions. […] Light is scattered proportionally to the concentration of polymerized microtubules in the assay. Therefore, tubulin assembly was monitored turbidimetrically at 340 nm in a Spectramax 340 PC spectrophotometer (Molecular Devices, Sunnyvale, Calif., USA). The concentration that inhibits tubulin polymerization by 50% (IC50) was determined using area under the curve (AUC). The AUC of the untreated controls were considered as 100% polymerization. The IC50 value for each compound was computed using GraphPad Prism Software.

MCF-7 cells [2] = assay: Cell cycle analysis by PI flow cytometry; assay type: cell-based, human; conditions: MCF-7, 50 nM
Description: MCF-7 cells were seeded at a density of 1×10^5 cells/well in 6-well plates and treated with CA-4 (50 nM) and compound 8c (50 and 250 nM) for 24, 48 and 72 hr. The cells were collected by trypsinization and centrifuged at 800×g for 15 min. Cells were washed twice with ice-cold PBS and fixed in ice-cold 70% ethanol overnight at −20° C. Fixed cells were centrifuged at 800×g for 15 min and stained with 50 μg/mL of PI, containing 50 μg/mL of DNase-free RNase A, at 37° C. for 30 min. The DNA content of cells (10,000 cells/experimental group) was analysed by flow cytometer at 488 nm using a FACSCalibur flow cytometer (BD Biosciences, San Jose, Calif.) and all data were recorded and analyzed using the CellQuest Software (Becton-Dickinson).

[3] = test system: HeLa cervical cancer cells; assay: MTT cell viability assay, HeLa; assay type: cell-based, human
Description: (§1) All the human tumour cell lines MCF-7, HCT-116, HL-60 and HeLa were cultured in Dulbecco's Modified Eagle's Medium (DMEM) with 10% fetal bovine serum, 2 mM L-glutamine and 100 µg/mL penicillin/streptomycin. Cells were maintained at 37° C. in 5% CO2 in a humidified incubator. All cells were sub-cultured 3 times/week by trypsinization using TrypLE Express (1×).
(§2) The quinoline compounds were evaluated for antiproliferative effect using the MTT viability assay of four cancer cell lines (MCF-7, HCT-116, HL-60 and HeLa) and normal breast cells MCF-10A to calculate the relative IC50 values for each compound. Cells were seeded in triplicate in 96-well plates at a density of 10×10^3 cells/ml in a total volume of 200 μl per well. 0.1% of DMSO was used as a vehicle control. After this time, they were treated with 2 μl test compound which had been pre-prepared as stock solutions in ethanol to furnish the concentration range of study, 1 nM to 50 μM, and re-incubated for a further 72 h. The culture medium was then removed, and the cells washed with 100 μL phosphate buffered saline (PBS) and 50 μL MTT added, to reach a final concentration of 1 mg/mL MTT added. Cells were incubated for 2 h in darkness at 37° C. At this point solubilisation was begun through the addition of […] DMSO and the cells maintained at room temperature in darkness for 20 min to ensure thorough colour diffusion before reading the absorbance. Plates were incubated for 72 hours at 37° C.+5% CO2, The MTT (5 mg/mL in PBS) was added and incubated for another 4 h, the optical density was detected with a microplate reader at 570 nm. Results were expressed as percentage viability relative to vehicle control (100%). Dose response curves were plotted and IC50 values (concentration of drug resulting in 50% reduction in cell survival) were obtained using the commercial software package Prism (GraphPad Software, Inc., La Jolla, Calif., USA). All the experiments were repeated in at least three independent experiments.

[4] = test system: tubulin (colchicine binding site); assay: [3H]colchicine site competitive binding assay; conditions: inhibition of [3H]colchicine binding
Description: The affinity of compounds 8c to colchicine binding site was determined using Colchicine Site Competitive Assay kit CytoDYNAMIX Screen15 (Cytoskeleton, Inc., CO, USA) using the standard protocol of the manufacturer to determine Ki values (μM). Biotin-labelled tubulin ([…]) in 10 μL of reaction buffer was mixed with [3H]colchicine (0.08 μM, PerkinElmer, Waltham, Mass.) and the test compounds (positive control colchicine, negative control vinblastine, G-1, fluorescent G-1, or 2-ME) in a 96-well plate (final volume: 100 μL). After incubating for 2 h at 37° C. with gentle shaking, streptavidin-labelled yttrium SPA beads ([…] in 20 μL reaction buffer, PerkinElmer, Waltham, Mass.) were added to each well and incubated for 30 min at 4° C. The plates were then read on a scintillation counter (Packard Instrument, Topcount Microplate Reader) and the percentage of inhibition was calculated

[5] = test system: HCT-116 colon cancer cells; assay: MTT cell viability assay, HCT-116; assay type: cell-based, human; conditions: HCT-116, MTT
Description: as §1, §2

[6] = test system: MCF-7 breast cancer cells; assay: MTT cell viability assay, MCF-7; assay type: cell-based, human
Description: as §1, §2

MCF-7 cells [7] = assay: ROS production by H2-DCFDA; assay type: cell-based, human; conditions: MCF-7, 50 nM, 24 h; untreated 1.0%
Description: Mitochondrial membrane potential (Δψmt) was measured by flow cytometry with DiOC2(3) staining and additional labelling with an annexin V conjugate. After treatment with compound 8c (50 and 250 nM) and CA-4 (50 nM), cells were stained with DiOC2(3) dye for 30 min in the incubator then harvested and washed with PBS. DiOC2(3)-stained cells were resuspended with 1× annexin binding buffer then added annexin V conjugate and incubated at 37° C. for 15 min. Then the data obtained from flow cytometry were analyzed by Cell Quest software. Production of intracellular Reactive oxygen species (ROS) was measured using 2,7-dichlorofluorescin diacetate (H2-DCFDA) dye. MCF-7 cells were seeded and treated either with vehicle (0.1% DMSO) or with compound 8c (50 and 250 nM) and CA-4 (50 nM) for different time 6, 12 and 24 h. H2O2 was used as a positive control. The amount of ROS generated was estimated after 2 h of selected compound treatment. The cells were collected by centrifugation and washed twice with PBS. Cells were then incubated with DCFDA dye (25 μM) in dark at 37° C. for 1 h. Fluorescence spectra (510-600 nm) were monitored using an excitation wavelength of 488 nm

HL-60 leukemia cells = assay: MTT cell viability assay, HL-60; assay type: cell-based, human
Description: as §1, §2

MCF-7 cells [8] = assay: Annexin V/PI apoptotic assay; assay type: cell-based, human; conditions: MCF-7, 50 nM, 48 h; control 1%
Description: Apoptotic cell death was detected by flow cytometry using Annexin V and propidium iodide (PI). […] Cells were then harvested and prepared for flow cytometric analysis. Cells were washed in 1× binding buffer (20× binding buffer: 0.1M HEPES, pH 7.4; 1.4 M NaCl; 25 mM CaCl2) diluted in dH2O) and incubated in the dark for 30 minutes on ice in Annexin V-containing binding buffer [1:100]. Cells were then washed once in binding buffer and then re-suspended in […] binding buffer [1:1000]. Samples were analysed immediately using the BD accuri flow cytometer and prism software for analysis the data. Four populations are produced during the assay Annexin V and PI negative (Q4, healthy cells), Annexin V positive and PI negative (Q3, early apoptosis), Annexin V and PI positive (Q2, late apoptosis) and Annexin V negative and PI positive (Q1, necrosis).

[9] = test system: anti-apoptotic protein Bcl-2; assay: Bcl-2 ELISA in MCF-7 cells; assay type: cell-based, human; conditions: MCF-7, 250 nM, 48 h
Description: (§3) Bcl-2 content of MCF-7 cells was assessed by ELISA Kit purchased Zymed laboratories, invitrogen immunodetection according to the manufacturer's protocol, and the enzyme concentration was expressed as ng/mL [55]. ELISA Assay for BAX content of MCF-7 cells was assessed by ELISA kit purchased from Cloud-Clone Crop. (USA) according to the manufacturer's protocol, and the enzyme concentration was expressed as ng/mL [56]. In Vitro Caspase-9 Activation Assay was performed using human active caspase-9 Invitrogen EIA kit and the procedure of the used kit was done according to the manufacturer's instructions.

MCF-7 cells [10] = assay: Colony formation assay; assay type: cell-based, human; conditions: MCF-7, 50 and 250 nM
Description: MCF-7 cells (600 cells per well) were seeded in 6-well plates and incubated for 24 h before being then treated with different doses of the compound 8c (50 and 250 nM) for 14 days. […]. Then the cells were washed with PBS twice and subsequently fixed with 4% paraformaldehyde and stained with 0.05% crystal violet for 30 min. Finally, cells were visualized using an inverted microscope.

caspase-9 = assay: Caspase-9 activation assay in MCF-7 cells; assay type: cell-based, human; conditions: MCF-7, 50 nM
Description: as §3

[11] = test system: pro-apoptotic protein Bax; assay: BAX ELISA in MCF-7 cells; assay type: cell-based, human; conditions: MCF-7, 250 nM, 48 h
Description: as §3

MCF-7 cells [12] = assay: Wound healing (cell migration) assay; assay type: cell-based, human; conditions: MCF-7, 24 h
Description: MCF-7 were grown in 6-well plates for 24 h, then the scratches were made using pipette tip and washed with PBS to remove non-adherent cell debris. Subsequently, the cells were treated with different concentrations of 8c for 24 h. The migrations across the wound area were photographed under a phase contrast microscopy.

Structure (SMILES): COc1ccc(/C=C\c2cc(OC)c(OC)c(OC)c2)cc1O [CA-4, Combretastatin A-4, reference compound]
- IC50 [1]: 6100 nM
- percentage of cells in G2/M phase (MCF-7 cells [2]; 24 h): 40.3%
- population in the sub-G1 phase (apoptosis) (MCF-7 cells [2]; 24 h): 23.5%
- population in the sub-G1 phase (apoptosis) (MCF-7 cells [2]; 48 h): 31.1%
- percentage of cells in G2/M phase (MCF-7 cells [2]; 48 h, control 9.2%): 43.8%
- percentage of cells in G2/M phase (MCF-7 cells [2]; 72 h): 47.7%
- population in the sub-G1 phase (apoptosis) (MCF-7 cells [2]; 72 h): 37.4%
- IC50 ([3]; 72 h, read-out: IC50 value (μM) HeLa): 0.064 ± 0.004 µM
- Colchicine binding % ± SD, 1 μM drug [4]: 86% and 86 ± 0.9%
- Colchicine binding % ± SD, 5 μM drug [4]: 97% and 97 ± 2%
- IC50 ([5]; 72 h, read-out: IC50 value (μM) HCT-116): 0.026 ± 0.001 µM
- IC50 ([6]; MCF-7, MTT, 72 h, read-out: IC50 value (μM) MCF-7): 0.019 ± 0.004 µM
- ROS generation (MCF-7 cells [7]): 18.3%
- IC50 (HL-60 leukemia cells; HL-60, MTT, 72 h, mean ± spread of three experiments, read-out: IC50 value (μM) HL-60): 0.076 ± 0.004 µM
- Annexin V-staining positive cells (total apoptotic cells) (MCF-7 cells [8]): 29%

Structure (SMILES): COc1cc(C2=NC(=Cc3cc4ccc(C)cc4nc3OC)C(=O)O2)cc(OC)c1OC [Compound 8c, 4-[(2-Methoxy-7-methylquinolin-3-yl)methylene]-2-(3,4,5-trimethoxyphenyl)oxazol-5(4H)-one]
- expression level of anti-apoptotic protein Bcl-2 [9]: decrease in the expression level
- IC50 (bovine brain tubulin): 1200 nM and 1210 nM
- inhibition of colony formation (MCF-7 cells [10]): inhibited the colony formation in a dose dependent manner
- IC50 ([3]; Homo sapiens, read-out: IC50 in HeLa): 0.0427 µM
- Colchicine binding % ± SD, 1 μM drug [4]: 79% and 79 ± 2%
- Colchicine binding % ± SD, 5 μM drug [4]: 87% and 87 ± 1%
- IC50 ([5]; Homo sapiens, read-out: IC50 in HCT-116): 0.0225 µM
- IC50 ([6]; Homo sapiens, MCF7, MCF-7, MTT, read-out: IC50 in MCF-7): 0.0107 µM
- IC50 ([6]; MCF-7, MTT, read-out: IC50 in MCF-7): 0.0191 µM
- fold increase in caspase-9 expression (caspase-9): about 6 fold
- expression of pro-apoptotic protein Bax [11]: up-regulation in the expression
- inhibition of cell migration (wound healing) (MCF-7 cells [12]): migration inhibition in a dose dependent manner
- IC50 (HL-60 leukemia cells; HL-60, MTT, read-out: IC50 in HL-60): 0.0107 µM
- IC50 (HL-60 leukemia cells; Homo sapiens, HL-60, HL-60, MTT, read-out: IC50 in HL-60): 0.0191 µM
- Annexin V-staining positive cells (total apoptotic cells) (MCF-7 cells [8]): 15%
